A word on the IC50: it is the point on the concentration scale where inhibition reaches its midpoint. The term bioavailability denotes dose-corrected exposure relative to a reference, in per cent. One may read the MIC as the least concentration at which growth counts as inhibited. Low values mean inhibition by little substance, high ones a need for much substance.

Consider eleven compounds from ChEMBL document CHEMBL2401704, “Inhibition of rhodesain as a novel therapeutic modality for human African trypanosomiasis” (J Med Chem, 2013).

The test system of data set [1] is Trypanosoma brucei brucei. In words: Antitrypanosomal activity against procyclic form of Trypanosoma brucei brucei. Format: functional. The settings on record: read-out: ED50 (the source's name).
Data set [2] is described as follows: Inhibition of Trypanosoma brucei recombinant rhodesain.
Data set [3] relates to Trypanosoma brucei brucei. In words: Antitrypanosomal activity against blood stream form of Trypanosoma brucei brucei. The data set is classed as functional, organism-based. Conditions: for EC50: read-out: ED50 (the source's name).
A short description of data set [4]: Selectivity index, ratio of ED50 for human HL60 cells to ED50 for Trypanosoma brucei brucei. The settings on record: read-out: Ratio ED50. Format: toxicity, cell-based, HL-60.
Data set [5] is described as follows: Oral bioavailability in Sprague-Dawley rat. The data set is classed as ADME, organism-based. Conditions: in vivo.
In data set [6] the test system is Trypanosoma brucei. In words: Inhibition of Trypanosoma brucei rhodesain assessed as second order rate constant.
Data set [7] in a line: Cytotoxicity against human HL60 cells. The data set is classed as cell-based, HL-60. Conditions: for CC50: read-out: ED50 (the source's name); for MCC: read-out: MIC.
Data set [8] is described as follows: Inhibition of Trypanosoma brucei rhodesain.
For data set [9], the target named is Trypsin (Homo sapiens, UniProt P07477+P07478+P35030). Nature of the data set: Inhibition of trypsin (unknown origin). Format: protein assay.
Data set [10] in a line: Inhibition of cathepsin B (unknown origin). Further details: species or system Homo sapiens.
Data set [11] addresses T1, Papain (Carica papaya, UniProt P00784).
T1 sequence (P00784 whole entry): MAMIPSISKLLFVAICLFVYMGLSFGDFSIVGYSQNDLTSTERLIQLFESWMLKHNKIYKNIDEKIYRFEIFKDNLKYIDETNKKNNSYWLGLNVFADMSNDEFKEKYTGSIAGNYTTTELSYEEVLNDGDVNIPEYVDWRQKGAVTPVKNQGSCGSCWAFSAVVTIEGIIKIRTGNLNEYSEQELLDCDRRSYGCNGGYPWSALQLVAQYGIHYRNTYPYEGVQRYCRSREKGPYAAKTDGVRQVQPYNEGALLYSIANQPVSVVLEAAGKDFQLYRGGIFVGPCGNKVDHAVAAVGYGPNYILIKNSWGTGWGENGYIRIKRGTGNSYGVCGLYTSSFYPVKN
Nature of the data set: Inhibition of papaya papain.

Data set [12] concerns the target Cruzipain (Trypanosoma cruzi, UniProt P25779). In words: Inhibition of Trypanosoma cruzi cruzain.

≈ marks a conversion by molar mass, not a printed value. Residues, ends and D or L forms follow the SMILES beside them. *: point of attachment. Cbz = O=C(OCc1ccccc1)* A value given as a limit tells only on which side of the number the result lay.

Chain of Cruzipain (P25779 whole entry): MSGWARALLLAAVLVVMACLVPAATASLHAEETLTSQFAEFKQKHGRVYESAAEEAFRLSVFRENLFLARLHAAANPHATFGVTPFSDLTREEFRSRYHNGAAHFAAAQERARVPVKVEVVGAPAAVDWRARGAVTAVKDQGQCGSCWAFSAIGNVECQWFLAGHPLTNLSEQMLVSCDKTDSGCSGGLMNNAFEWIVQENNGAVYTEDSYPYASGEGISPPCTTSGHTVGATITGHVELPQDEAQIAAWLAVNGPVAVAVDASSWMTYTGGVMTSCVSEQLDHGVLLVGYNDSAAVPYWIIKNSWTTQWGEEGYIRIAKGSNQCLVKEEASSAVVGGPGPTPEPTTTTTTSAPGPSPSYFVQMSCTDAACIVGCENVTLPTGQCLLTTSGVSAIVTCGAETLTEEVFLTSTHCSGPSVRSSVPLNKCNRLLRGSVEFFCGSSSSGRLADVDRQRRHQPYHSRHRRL

Turning to `CCCCCN(C#N)N(C)C(=O)[C@H](Cc1ccccc1)NC(=O)OCc1ccccc1`, the values for the EC50 in [1] and in data set [3] were 700 nM and 1400 nM, respectively. Moreover, the IC50 in data set [2] came out at 0.06 nM.
For `Cc1ccc(C(=O)Nc2ccc(S(=O)(=O)O)c3cc(S(=O)(=O)O)cc(S(=O)(=O)O)c23)cc1NC(=O)c1cccc(NC(=O)Nc2cccc(C(=O)Nc3cc(C(=O)Nc4ccc(S(=O)(=O)O)c5cc(S(=O)(=O)O)cc(S(=O)(=O)O)c45)ccc3C)c2)c1` [SURAMIN], the selectivity ratio in data set [4] is 1900. Also, the EC50 in data set [3] worked out at 130 nM.
In the case of `CN(C(=O)[C@H](Cc1ccccc1)NC(=O)OCc1ccccc1)N(C#N)CCCc1ccccc1`, the EC50 in data set [1] turned out to be 700 nM; in [3], 1200 nM. In addition, the half-maximal inhibitory concentration (IC50) in data set [2] came out at 2 nM.
On to `O=C(N[C@H](/C=C/S(=O)(=O)c1ccccc1)CCc1ccccc1)[C@H](Cc1ccccc1)NC(=O)N1CCOCC1`, for which the EC50 was determined as 7300 nM in data set [1] and 5600 nM in data set [3]. For the same compound, the IC50 in data set [2] was determined as 0.36 nM. This compound came in with a bioavailability in data set [5] of 3%.
In the case of `CC[C@H](C)[C@H](NS(=O)(=O)c1cccc2ccccc12)C(=O)N[C@H](C=O)Cc1c[nH]c2ccccc12`, in data set [6], the K stood at 3.54 ×10⁷ /M/min. Further, the selectivity ratio in [4] turned out to be 1150. Moreover, in data set [7], the CC50 was determined as 21000 nM and the MCC was > 100 µM. In addition, in data set [3], the MIC was 10 µM (≈ 4.92 µg/mL) and the EC50 was 18 nM.
As to `CS(=O)(=O)c1sc(C(=O)NC(=S)Nc2ccc(OC(F)(F)F)cc2)c2ccccc12`, the IC50 in [8] was 4200 nM; in data set [9], > 50000 nM; in [10], 11000 nM; in data set [11] it was > 50000 nM; in data set [12] it was 6900 nM.
`CN1CCN(C(=O)N[C@@H](Cc2ccccc2)C(=O)N[C@H](/C=C/S(=O)(=O)c2ccccc2)CCc2ccccc2)CC1` [K-777]: the K in data set [6] was 9 ×10⁶ /M/min. Also, the results for the EC50 in [1] and in data set [3] were 5800 nM and 900 nM, respectively. Besides, the IC50 in [2] came to 0.35 nM. In addition, in data set [5], the bioavailability is 19.9%.
With `O=C(Nc1ccc(Cl)cc1)Nc1csc(-c2ccc(C(F)(F)F)cc2)n1`, the IC50 in [8] is 2000 nM; in data set [9] it was > 50000 nM; in data set [10], 10800 nM; in data set [11] it was > 50000 nM; in data set [12], 1200 nM.
For `Cn1nc(C(F)(F)F)cc1-c1ccc(NC(=O)Nc2cccc(C(F)(F)F)c2)s1`, the IC50 in data set [8] was 3000 nM; in [9], > 50000 nM; in [10], 11000 nM; in [11], > 50000 nM; in [12], 3100 nM.
With `O=C[C@H](Cc1ccc(O)cc1)NC(=O)[C@H](Cc1ccccc1)NC(=O)OCc1ccccc1` (Cbz-Phe-Tyr-aldehyde), in data set [6], the K is 1.38 ×10⁸ /M/min. The selectivity ratio in data set [4] turned out to be 482. In data set [7], the CC50 stood at 21500 nM and the MCC is > 100 µM. Further, in data set [3], the MIC was 100 µM (≈ 44.7 µg/mL) and the EC50 was determined as 45 nM.
For `CCOC(=O)c1ccc(NC(=S)NC(=O)c2ccc(Cl)c(Cl)c2)cc1`, the IC50 in data set [8] is 2000 nM; in [9], > 50000 nM; in data set [10], 10700 nM; in [11], > 50000 nM; in data set [12], 1900 nM.
